Measurements: patent publication US8604044B2, “Quinazoline based EGFR inhibitors containing a zinc binding moiety” (Curis, Inc., priority 2006, dated 2013)
Like-named read-outs stand apart in the source and are kept apart here.

Tests used:
human EGFR = target: T1, human EGFR (Homo sapiens, UniProt P00533); test: HTScan EGF Receptor Kinase Assay; format: biochemical; settings: FIG. 1
T1 construct: human EGFR (His672-Ala1210); purchased Cell Signaling Technologies; host or cells: baculovirus expression system
Experimental: The ability of compounds to inhibit receptor kinase (EGFR) activity was assayed using HTScan™ EGF Receptor Kinase Assay Kits (Cell Signaling Technologies, Danvers, Mass.). […] The protein was purified by one-step affinity chromatography using glutathione-agarose.
Immediately transfer enzyme from −80° C. to ice. Allowed enzyme to thaw on ice. […] Returned immediately to ice. […] Incubated reaction plate at room temperature for 30 minutes. […] Added 100 μl/well primary antibody. Incubated at room temperature for 60 minutes. […] Added 100 μl/well diluted antibody. Incubated at room temperature for 30 minutes. […] Incubated at room temperature for 5 minutes.

Caki-1 = test: Cell proliferation assay (Table D); format: cell-based; settings: Homo sapiens, Renal carcinoma, read-out: IC50 grading Caki-1
[1] = tested on: various cancer cell lines; test: Cell proliferation assay, various cancer cell lines (general statements); format: cell-based; settings: Table D
Experimental: Cancer cell lines were plated at 5,000 to 10,000 per well in 96-well flatted bottomed plates with various concentration of compounds. The cells were incubated with compounds for 72 hours in the presence of 0.5% of fetal bovine serum. Growth inhibition was accessed by adenosine triphosphate (ATP) content assay using Perkin Elmer ATPlite kit. ATPlite is an ATP monitoring system based on firefly luciferase. Briefly, 25 μl of mammalian cell lysis solution was added to 50 μl of phenol red-free culture medium per well to lyse the cells and stabilize the ATP. 25 μl of substrate solution was then added to the well and subsequently the luminescence was measured.

[2] = tested on: HDAC in MDA-MB-468 breast cancer cell line; test: Ac-H4 / Ac-H3 accumulation in MDA-MB-468 breast cancer cell line (FIG. 2); format: cell-based; settings: MDA-MB-468, Ac-H4 and Ac-H3 accumulation
[3] = tested on: EGFR in MDA-MB-468 breast cancer cell line; test: EGFR phosphorylation in MDA-MB-468 breast cancer cell line (FIG. 2); format: cell-based; settings: MDA-MB-468, FIG. 2
[4] = tested on: HCT-116 (colon) and SKBr3 (breast) cancer cells; test: Induction of apoptosis, Caspase 3&7 activity (FIG. 4); format: cell-based; settings: 24 hours
[5] = Pharmacokinetic study of compound 12 formulation in mice; format: in vivo; settings: hydrochloride salt in 30% CAPTISOL
Experimental: Drug Preparation and Administration. […] Compound was administered via an intravenous (iv) infusion.
Plasma samples were prepared by protein precipitation. An internal standard was added into plasma samples. […] The supernatant was then injected onto LC/MS/MS.
Tissues were homogenized in 0.8 ml water. An internal standard was added into the tissue homogenates.

[6] = Pharmacokinetic study of compound 12 formulation in rats; format: in vivo; settings: 20 and 60 mg/kg iv, hydrochloride salt in 30% CAPTISOL, over thirty hours, FIG. 14
[7] = tested on: HPAC pancreatic cancer cells; test: HPAC pancreatic cancer xenograft; format: in vivo, mice; settings: 120 mg/kg in 30% CAPTISOL (iv/ip) daily vs 50 mg/kg erlotinib (po) or vehicle, FIG. 12A
Experimental: 1-10×10^6 human cancer cells were implanted subcutaneously to the athymic (nu/nu) mice. When the tumors reached about 100 mm^3 in volume, the mice were treated with the compound by tail vein infusion. Routinely 5 groups (8-12 mice per group) are needed for a typical efficacy study, including one negative control, one positive control, and three testing groups for 3 dose levels of the same compound. Usually a 7-7-5 (on-off-on) regimen was used for one typical study. The tumor size was measured with an electronic caliper and body weight measured with a scale twice weekly. The tumors were removed from euthanized mice at the end of the study. One half of each tumor was frozen in dry ice and stored at −80° C. for PK or Western blot analysis. The other half was fixed with formalin. The fixed tissues were processed, embedded in paraffin and sectioned for immunohistochemistry staining.

[8] = male, CD-1, mouse, in vivo, iv, 9 days
[9] = male, CD-1, mouse, in vivo, ip, 7 days
[10] = both, Sprague Dawley, rat, in vivo, iv, 8 days
[11] = Pharmacokinetic study of compound 12 formulation in mice; format: in vivo; settings: IP Dose 20 mg/kg, hydrochloride salt in 30% CAPTISOL
[12] = Captisol formulation of compound 12: solubility, pH, dilution, stability

T1 sequence (P00533 672-1210): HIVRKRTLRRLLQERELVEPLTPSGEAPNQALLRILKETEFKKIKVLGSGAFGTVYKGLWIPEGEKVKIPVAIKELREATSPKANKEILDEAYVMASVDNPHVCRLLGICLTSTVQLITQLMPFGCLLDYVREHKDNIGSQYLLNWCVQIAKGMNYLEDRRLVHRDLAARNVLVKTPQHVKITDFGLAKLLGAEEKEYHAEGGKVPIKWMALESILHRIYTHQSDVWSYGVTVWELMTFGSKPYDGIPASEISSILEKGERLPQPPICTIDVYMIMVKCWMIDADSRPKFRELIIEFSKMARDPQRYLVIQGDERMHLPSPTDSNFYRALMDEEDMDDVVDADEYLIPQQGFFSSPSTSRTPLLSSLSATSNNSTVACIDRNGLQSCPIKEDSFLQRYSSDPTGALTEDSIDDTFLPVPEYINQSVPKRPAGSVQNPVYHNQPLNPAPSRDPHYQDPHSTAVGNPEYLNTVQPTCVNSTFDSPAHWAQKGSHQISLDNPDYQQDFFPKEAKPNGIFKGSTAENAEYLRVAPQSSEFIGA

## C#Cc1cccc(Nc2ncnc3cc(OC)c(OCCCCCCC(=O)NO)cc23)c1 [Compound 12, 7-(4-(3-ethynylphenylamino)-7-methoxyquinazolin-6-yloxy)-N-hydroxyheptanamide]
Human EGFR
  activity in EFGR enzyme assay compared with erlotinib: more active
Caki-1
  IC50: ≤ 50 nM
[1]
  activity in various cancer cell lines compared with Erlotinib and SAHA: more active than Erlotinib and SAHA
[2]
  histone H3/H4 acetylation accumulation compared with SAHA: improvement
[3]
  inhibition of EGFR phosphorylation compared with Erlotinib: improvement
[4]
  cell apoptosis measured by increased Caspase 3&7 activity, times more: 4-11 times
[5]; 20 and 60 mg/kg, iv and ip
  dose proportionality of concentration: dose proportional when administered intravenously but not intraperitoneally
[5]; IP Dose 20 mg/kg, Lung
  T ½: 2.2 h
[5]; IV Dose 20 mg/kg, Colon
  AUC: 5529 ng·h/mL
  Cmax: 8.5 µM
  T ½: 1.7 h
[5]; IV Dose 20 mg/kg, Lung
  AUC: 1571 ng·h/mL
  Cmax: 15.2 µM
  T ½: 3.9 h
[5]; IV Dose 20 mg/kg, Plasma
  AUC: 715 ng·h/mL
  Cmax: 27.7 µM
  T ½: 0.2 h
[5]
  half-life in tissue compared with plasma: greater than that in plasma
[6]
  plasma concentration versus dose: proportional to the dose
[7]
  attenuation of tumor growth: greater attenuation of tumor growth than either erlotinib (po) or vehicle
[8]
  dose not resulting in a significant change in body weight: up to 200 mg/kg
[9]
  dose not resulting in a significant change in body weight: up to 100 mg/kg
[10]
  dose not resulting in a significant change in body weight: up to 200 mg/kg
[11]; Lung
  AUC: 4433 ng·h/mL
  Cmax: 7.8 µM
[11]; Plasma
  AUC: 3751 ng·h/mL
  Cmax: 8.5 µM
  T ½: 0.26 h
[12]; 25 mg/ml in 30% Captisol with tartaric acid
  stability of solution: stable at room temperature
[12]; formulations from A (i), diluted with D5W 10-, 20-, and 50-fold
  chemically stable and in solution without precipitation after dilution: > 48 h
[12]; formulations from A (ii) citric acid, A (iii) hydrochloric acid, A (iiii) sodium salt, diluted with D5W 10-fold
  remained in solution without precipitation after dilution: > 12 h
[12]; lyophilisate from A (i) (tartaric acid, 25 mg/ml), −20° C., room temperature, and 40° C.
  chemical stability of lyophilisate: at least 2 weeks
[12]; lyophilisate from A (i), 4° C.
  storage of lyophilisate without decomposition: greater than 2 weeks
[12]; lyophilisate from A (iii) (hydrochloric acid), −20° C.
  stability of lyophilisate: at least two weeks
